This data set concerns Hep3B tumor xenograft. Put plainly: Hep3B tumor xenograft growth in nude mice. The data set is classed as in vivo, nude (nu/nu) mice. The method, then:
Hep3B cells were injected subcutaneously into nude (nu/nu) mice and when tumors reached a volume of 150 mm^3 (designated day 1), the mice were treated with vehicle or 32-134D by daily intraperitoneal injection. […] Treatment with 32-134D for 17 days had no effect on mouse appearance, behavior, or body weight (Supplemental Figure 4B). We treated additional mice with 32-134D at a dose of 40 mg/kg versus vehicle and confirmed inhibition of tumor growth without effects on body weight (Supplemental Figure 5, A–C).
Figure 2 Effect of 32-134D on Hep3B tumor xenograft growth and vascularization. (A) Female nude mice received a subcutaneous injection of […] Hep3B cells. When tumors reached a volume of 150 mm^3 (designated treatment day 1), the mice were randomized to receive a daily intraperitoneal injection of 32-134D at a dose of 0 (blue), 20 (black), 40 (red), or 80 (green) mg/kg. Data are presented as mean tumor volume (± SEM; n = 4 each). **P < 0.01, ***P < 0.001 (ANOVA with Bonferroni’s post hoc test). (B) Gross pathology of tumors harvested from vehicle-treated (top panel) and 32-134D–treated (bottom panel) mice. (C) Nuclear extracts prepared from tumors were assayed by immunoblotting using antibodies against the indicated proteins. (D) Total RNA was isolated from tumor tissue and analyzed by RT-qPCR using primers specific for the indicated mRNAs and results (mean ± SEM, n = 4) were normalized to the mean value for tumors from vehicle-treated mice. (E) ELISA for the indicated proteins was performed using aliquots of tumor lysates (mean ± SEM; n = 3–4 tumors each). *P < 0.05 (Mann-Whitney test). (F) Formalin-fixed and paraffin-embedded tumor sections were analyzed by immunohistochemistry using an antibody against CD31 to identify vascular endothelial cells. Scale bar: 100 μm. The total CD31^+ vessel area per field was quantified using ImageJ (mean ± SEM; n = 4 tumors with 5 sections per tumor). *P < 0.05 (Student’s t test).
Female nude mice (NCI Athymic NCr-nu/nu) and male C57L mice were purchased from Charles River and The Jackson Laboratory, respectively. Hep3B (8 × 10^6) and Hepa1-6 (1 × 10^7) cells were resuspended in PBS and Matrigel (1:1, vol/vol) and implanted subcutaneously in 6- to 8-week-old mice, and tumor volume was calculated as V = abc × 0.52. For Hep3B tumor studies, once tumors reached 100 to 150 mm^3, mice were randomized into groups to receive daily intraperitoneal injection of either 32-134D or vehicle only (20% PEG-400, 10% Cremophor EL, 10% ethanol in PBS). For Hepa1-6 tumors, mice were randomized to receive treatment once tumors became palpable (tumor eradication experiment) or reached a volume of 200 mm^3 (harvesting of tumors for flow cytometry and analysis of RNA and protein expression). Tumors were harvested 4 hours after the last treatment (see Supplemental Table 6 for reagent sources).
Supplemental Figure 4. […]
Female nude mice received a subcutaneous injection of 8 x 10^6 Hep3B cells. […] (A) Tumor volumes were determined every other day. […] (B) Body weights of tumor-bearing mice were measured every other data and are presented as mean + SEM (n = 3-4 per group). […]
Supplemental Figure 5. […] (A-D) Tumor bearing mice were treated with daily intraperitoneal injection of vehicle (black) or 32-134D (red; 40 mg/kg) and individual (A) and mean (B) tumor volumes as well as body weight (C) were determined every other day and mean tumor weights (D) were determined on day 17 (mean + SEM, n =4). *P < 0.05 by ANOVA. […]

Molecules are shown by their SMILES.

Turning to `Brc1ccc2c(-c3csc(-c4c[nH]c5c(Br)cccc45)n3)c[nH]c2c1` [Compound 32-134D], the tumor xenograft growth result runs as follows: (20 mg/kg daily intraperitoneal, P < 0.01 vs vehicle) “partial growth inhibition”; (40 mg/kg daily intraperitoneal, P < 0.001 vs vehicle) “maximal growth inhibition”; (80 mg/kg daily intraperitoneal, P < 0.001 vs vehicle) “maximal growth inhibition”. In addition, under “40 mg/kg, day 17, P < 0.05”, the “tumor mass at harvest” value was “significantly decreased”. Moreover, the “mouse appearance, behavior, or body weight” value (treatment for 17 days) is listed as “no effect”.

Values taken from publication PMC9057582, “HIF inhibitor 32-134D eradicates murine hepatocellular carcinoma in combination with anti-PD1 therapy” (The Journal of Clinical Investigation, 2022).
